Reference: paper PMC4608773, “Elisidepsin Interacts Directly with Glycosylceramides in the Plasma Membrane of Tumor Cells to Induce Necrotic Cell Death” (PLoS ONE, 2015)
Where two headings read alike, the source gives them in different places.

What was measured:
[1] = system: HCT-116 cells; test: cells
Procedure: (§1) Cells were seeded in 96-well microtiter plates and maintained at 37°C and 5% CO2 in drug-free medium before treatment with vehicle alone or elisidepsin at the concentrations and times indicated in the text. For cell survival quantification, a colorimetric assay using SRB was used. Briefly, after treatment, cells were washed twice with phosphate buffered saline (PBS), fixed for 25 min in 1% glutaraldehyde solution, rinsed twice with PBS, stained in 0.4% SRB-1% acetic acid solution for 30 min, rinsed several times with 1% acetic acid solution, and air-dried. […] Results are expressed as percentage of control cell survival and represent the mean of at least three independent experiments. IC50, half-maximal inhibitory concentration, was used as a reference value.

[2] = system: HCT-116-Irv cells (elisidepsin-resistant subline); test: cells
Procedure: B16 and GM95 cells were maintained in DMEM with the same supplements and conditions.
as §1

[3] = system: B16 cells; test: Cell viability assay (SRB colorimetric); type: cell-based, mouse; settings: SRB assay; mean of three different experiments; read-out: B16 (IC50), cell growth half-maximal inhibitory concentration
Procedure: as §1

[4] = system: GM95 cells (UGCG-deficient B16 mutant); test: Cell viability assay (SRB colorimetric); type: cell-based, mouse; settings: negative values where GM95 is the more sensitive line
Procedure: as §1

[5] = system: GM95-UGCG cells; settings: read-out: mean IC50, GM95-UGCG cells; 72 h treatment (Fig 4C); SRB; at least three experiments
Procedure: as §1

[6] = system: HCT-116 cells; test: Electrophysiological recordings of membrane conductance (whole-cell patch-clamp); type: cell-based, human; settings: elisidepsin 1 μM, ramps -100 mV to +120 mV, 500 ms, n = 4
Procedure: (§2) The effects of elisidepsin on membrane conductance were analyzed in HCT-116 and HCT-116-Irv cells as previously described. Experiments were performed in a small bath mounted on the stage of an inverted microscope (Nikon model TMS, Garden City, NY, USA) continuously perfused with the extracellular solution (Tyrode-glucose buffer). Ion currents were recorded at room temperature (20–22°C) using the whole-cell voltage-clamp configuration of the patch-clamp technique with an Axopatch 200B patch-clamp amplifier (Axon Instruments, Foster City, CA). Currents were filtered at 2 kHz (four-pole Bessel filter), sampled at 4 kHz. Data acquisition and command potentials were controlled by the CLAMPEX program of PCLAMP 9.2 software (Axon Instruments). Micropipettes were pulled from borosilicate glass capillary tubes (Narishige, GD-1, Tokyo, Japan) on a programmable horizontal puller (Sutter Instrument Co., San Rafael, CA, USA) and heat-polished with a microforge (Narishige). Pipette tip resistance averaged between 1 and 3 MΩ. The intracellular pipette solution contained (in mM): K-aspartate 80, KCl 50, phosphocreatine 3, KH2PO4 10, MgATP 3, HEPES-K 10, EGTA-K 5 and was adjusted to pH 7.25 with KOH. The external solution (Tyrode-glucose buffer) contained (in mM): NaCl 130, KCl 4, CaCl2 1.8, MgCl2 1, HEPES-Na 10, and glucose 10, and was adjusted to pH 7.40 with NaOH. Measurements were performed using the CLAMPFIT program of PCLAMP 9.2.

[7] = system: HCT-116-Irv cells; test: as above; type: cell-based, human; settings: elisidepsin 1 μM; ramps -100 mV to +120 mV, 500 ms
Procedure: as §2

[8] = Lipid overlay (dot-blot) assay with elisidepsin-biotin; type: binding, human; settings: elisidepsin-biotin:elisidepsin 1:1 and 1:15
Procedure: Lipid extracts from cells were obtained according to the Bligh and Dyer method with slight modifications. Briefly, a cell pellet was resuspended in 1 mL of distilled water, then 3.75 mL of chloroform:methanol (1:2) was added and the suspension was mixed by vortexing two minutes; next, 1.25 mL of chloroform was added and vortexed one minute; last, 1.25 mL of NaCl 1 M was added to the suspension and vortexed one minute. The suspension was centrifuged and the bottom organic phase was collected. This solution was dried under a nitrogen stream and stored at -20°C. This extract was dissolved in a small volume of chloroform:methanol (2:1) and lipids were separated in a HPTLC (high performance thin layer chromatography) silica gel plate (Merck-Millipore, Darmstad, Germany) using a mobile phase of chloroform:methanol (8:2). Lipids were visualized by staining the plate with thioflavine S (sprayed with 10 μg mL^-1 in acetone:water (4:1) and visualized under UV light). Glycosylated lipids were visualized by orcinol staining (sprayed with orcinol 0.5% in sulphuric acid 0.5 M and developed with heat). […]
Interaction of purified lipid fractions with elisidepsin was evaluated with an overlay assay. […] Elisidepsin-biotin interactions were detected by incubation with streptavidin-HRP and subsequent chemiluminescence.

Structure (SMILES): C/C=C1\NC(=O)[C@H](Cc2ccccc2)NC(=O)[C@@H](C(C)C)NC(=O)[C@@H]([C@@H](C)CC)NC(=O)[C@H](NC(=O)[C@H](NC(=O)[C@H](CCCN)NC(=O)[C@H]2CCCN2C(=O)[C@H](NC(=O)[C@@H](NC(=O)[C@@H](NC(=O)[C@H](NC(=O)CC[C@@H](C)CC)C(C)C)[C@@H](C)O)C(C)C)C(C)C)[C@@H](C)CC)[C@@H](C)OC(=O)[C@H](C(C)C)NC1=O [Elisidepsin]
- Sensitivity of HCT-116 cells to elisidepsin after pretreatment with UGCG inhibitor NB-DNJ ([1]; pretreated 48 h with NB-DNJ 200 μM, elisidepsin 30 min incubation, SRB, three experiments): increase in cell resistance
- Sensitivity of HCT-116 cells to elisidepsin after pretreatment with UGCG inhibitor PDMP ([1]; pretreated 72 h with PDMP 10 μM, elisidepsin 30 min incubation, SRB, three experiments): increase in cell resistance
- IC50 ([1]; read-out: HCT-116 (IC50), cell growth half-maximal inhibitory concentration, SRB assay, 96-well, mean of three different experiments, exposure time not given): 5.5 µM
- IC50 ([1]; read-out: IC50 after 30 min exposure, HCT-116, 30 min exposure, SRB, mean±SD of at least three experiments): 7.7 ± 4.1 µM
- RR (resistance ratio): fold change between IC50 values from HCT-116-Irv and HCT-116 ([2]; negative values where HCT-116-Irv is the more sensitive line): 14.7
- IC50 ([2]; read-out: HCT-116-Irv (IC50), cell growth half-maximal inhibitory concentration, SRB assay, 96-well, mean of three different experiments, exposure time not given): 81 µM
- IC50 ([2]; read-out: IC50 after 30 min exposure, HCT-116-Irv, 30 min exposure, SRB, at least three experiments): > 100 µM
- IC50 ([2]; read-out: IC50 after 72 h exposure, HCT-116-Irv, 72 h exposure, SRB, mean±SD of at least three experiments): 81.5 ± 0.8 µM
- IC50 [3]: 7.9 µM
- RR: fold change between IC50 values from GM95 and B16 [4]: 8.9
- IC50 [5]: 9 µM
- Time constant of the increase of membrane conductance ([6]; holding -80 mV, 20–22°C): 107 ± 39 s
- Latency between application and the beginning of the effects on membrane conductance [6]: 460 ± 163 s
- Effect on membrane conductance [7]: virtually no effect
- Competition with elisidepsin-biotin for lipid fraction 4 [8]: could displace the biotinylated compound
